In PubChem BioAssay (NCI):
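Step 1: Grow cells in 96-well plates. Step 2: Expose to compound for 48 hours at 5 concentrations. Step 3: Interpolate endpoints linearly; if unreached, use highest concentration. TGI: concentration producing complete growth inhibition.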

Experiments:
Assay in all cases: NCI tumour cell line growth inhibition, 48 h
A498 renal = test system: A498 renal
BT-549 breast = test system: BT-549 breast
COLO 205 colon = test system: COLO 205 colon
HCT-15 colon = test system: HCT-15 colon
HOP-92 NSCLC = test system: HOP-92 NSCLC
HS 578T breast = test system: HS 578T breast
MDA-MB-231 breast = test system: MDA-MB-231 breast
NCI-H23 lung = test system: NCI-H23 lung
NCI/ADR-RES ovarian = test system: NCI/ADR-RES ovarian
PC-3 prostate = test system: PC-3 prostate
RPMI-8226 leukemia = test system: RPMI-8226 leukemia
HOP-62 NSCLC = test system: HOP-62 NSCLC

SMILES | TGI (A498 renal) [µM] | TGI (BT-549 breast) [µM] | TGI (COLO 205 colon) [µM] | TGI (HCT-15 colon) [µM] | TGI (HOP-92 NSCLC) [µM] | TGI (HS 578T breast) [µM] | TGI (MDA-MB-231 breast) [µM] | TGI (NCI-H23 lung) [µM] | TGI (NCI/ADR-RES ovarian) [µM] | TGI (PC-3 prostate) [µM] | TGI (RPMI-8226 leukemia) [µM] | TGI (HOP-62 NSCLC) [µM]
O=C(/C=C/c1c(O)c2ccccc2[nH]c1=O)CC(=O)C(=O)Nc1cccc(O)c1 | > 100 | > 100 | > 100 | > 100 | > 100 | > 100 | > 100 | > 100 | > 100 | > 100 | > 100 | 
CNC(=O)C(C)NC(=O)C(Cc1ccccc1)NC(=O)OC(C)(C)C (stereo unspecified) | > 100 | > 100 | > 100 | > 100 | > 100 | > 100 | > 100 | > 100 | > 100 | > 100 | > 100 | > 100
C/C(=C\c1csc(C)n1)[C@@H]1C[C@@H]2O[C@]2(C)CCC[C@H](C)[C@H](O)[C@@H](C)C(=O)C(C)(C)[C@@H](O)CC(=O)O1 (tested in a mixture with another compound) | > 1 | > 1 | 0.119 | > 1 | > 1 | > 1 | > 0.346 | > 1 | 0.13 | > 1 | > 0.172 | > 1
O=C(O)c1ccccc1C(=O)OCC1CCCN2CCCCC12 (stereo unspecified) | > 100 | > 100 | > 100 | > 100 | > 100 | > 100 | > 100 | > 100 | > 100 | > 100 | > 100 | > 100
NC(=Nc1ccc(Cl)c(Cl)c1)c1ccccc1N | 55.1 | > 100 | 52.8 | > 100 | 8.47 | 50 | > 100 | > 100 | 95.5 | 92.4 | 39.3 | > 100
Cc1cc(Cl)ccc1NC(=O)/C(CC(=O)CC(c1ccccc1)c1c(O)c2ccccc2oc1=O)=N\O (stereo unspecified) |  | > 100 | > 100 | > 100 | > 100 | > 100 | > 100 | > 100 | > 100 | > 100 |  | > 100
COc1ccc(-c2cc(=O)c3c(O)c(OC)c(O)cc3o2)cc1O | 65.8 | > 85.5 | 59.6 | > 100 | > 85.9 | 87.3 | > 100 | > 100 | > 21.2 | > 88.1 | > 23.6 | > 100
CC1=C(C#N)C(=O)N(/N=C/c2ccc(Cl)cc2)C(=O)/C1=c1\o/c(=C2/C(=O)N(/N=C/c3ccc(Cl)cc3)C(=O)C(C#N)=C2C)c2nccnc12 | > 100 | > 100 | > 100 | > 100 | > 100 | > 100 | > 100 | > 100 | > 100 | > 100 | > 100 | 
O=c1c2cc([N+](=O)[O-])cnc2sn1-c1ccc(Oc2ccccc2)cc1 |  | > 100 | > 100 | > 100 | 90.2 | 96.5 | 90.7 | > 100 | > 100 | > 100 | > 100 | > 100
Cc1ccc(S(=O)(=O)Oc2coc(CO)cc2=O)cc1 | 30.2 | 39.2 | 28.6 | > 49.5 | 39.6 | > 72.7 | 41.7 | 35.3 | > 69.5 | 38.2 | 36.5 | 34
O=c1[nH]c2nccn2c(Cl)c1Br | > 100 | 47.2 | 34.4 | 33.2 | 78.7 | 66 | 37.4 | 36.3 | 73.2 | > 100 | > 100 | > 100
COCC1OCCN1C (stereo unspecified) | > 100 | > 100 | > 100 | > 100 | > 100 | > 100 | > 100 | > 100 | > 100 | > 100 | > 100 | > 100
CC(C)CC(=O)OC[n+]1cccc(-c2c(COC(=O)NC(C)C)c(COC(=O)NC(C)C)c3n2CCC3)c1 | 59 | > 100 | > 100 | > 100 | 76.9 | > 100 | > 100 | > 100 | > 100 | > 100 | > 100 | > 100
CCN(CC)CCN1CCN=c2c3cc(OC)ccc3n3cnc4ccc1c2c43 | 1.82 | 3.26 | 2.6 | 1.9 | 4.42 | 4.71 | 2.33 | 4.61 | 2.39 | 1.63 | 1.3 | 3.46
CCOC(=O)c1c(-c2ccc(Cl)cc2)c(C#N)c(=S)n(C2OC(CO)C(O)C(O)C2O)c1-c1ccccc1 (stereo unspecified) |  | 61.3 | 80.9 | 85.6 | 42.6 | 58.6 | 75.9 | 72.7 | > 100 | 50.4 | > 100 | 36
CCC/C(Cl)=N\OC(=O)Nc1ccc(Br)cc1 | 32.2 | 62.6 | 7.19 | 19.9 | 9.17 | 66.6 | 33.8 | 40.6 | 40.5 | 28.4 | 12.2 | 42.6
Clc1cccc(Cl)c1C1SCc2nc3cc4ccccc4cc3n21 (stereo unspecified) |  | > 100 | > 100 | > 100 |  | > 100 | > 100 | > 100 | > 100 | > 100 | > 100 | > 100
